The record followed here is ChEMBL document CHEMBL1201862, “PubChem BioAssay data set” (2004).

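96-well plates; 48 h exposure; 5 concentrations. Endpoints by linear interpolation between flanking doses. Not reached: highest tested concentration assigned. GI50: concentration for 50% inhibition of growth.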 Activity calls are given as the source filed them. Cut-off read from the data, not from the text of the source: active = GI50 up to about 1.1 µM and inactive = higher. Some results are limits rather than exact numbers.

Common to all, as to test: NCI anticancer screen, dose series, 48 h
The test system of experiment [1] is DMS-273.
For experiment [2], the system named is XF498.
Experiment [3] deals with SNB-78.
Experiment [4] deals with DMS-114.
The test system of experiment [5] is HOP-18.
In experiment [6] the test system is M19-MEL.
In experiment [7] the test system is KM-20L2.
Experiment [8] concerns LXFL 529.
The subject of experiment [9] is RXF 631.

In the case of `O=C(O)CCC(=O)OCN1C(=O)C2C3C=CC(C2C1=O)C1C2C(=O)N(COC(=O)CCC(=O)O)C(=O)C2C31` (stereo unspecified), the GI50 in [1] was > 43.2 µM (inactive); in experiment [2], > 100 µM (inactive); in [3], > 100 µM (inactive); in [4] it was > 48.1 µM (inactive); in [5] it was 76.9 µM (inactive); in experiment [6], > 61.1 µM (inactive). In addition, the GI50 in experiment [7] and in experiment [8] was > 100 µM (inactive) each time.

As for `CCOC(=O)C1=C(C)C2C3C(=O)NC(=O)C3C1(C)C1C(=O)NC(=O)C21` (stereo unspecified), the GI50 is > 100 µM (inactive) in experiment [1]; > 100 µM (inactive) in experiment [3]; > 100 µM (inactive) in experiment [4]; 3.49 µM (inactive) in experiment [5]; > 100 µM (inactive) in experiment [6]; > 100 µM (inactive) in experiment [7]. The GI50 in experiment [8] is > 100 µM (inactive).

On to `CCC(/C(=N\Nc1c(Cl)cc(Cl)cc1Cl)c1ccccc1)n1ccnc1C` (stereo unspecified), for which the GI50 in [1] was 4.6 µM (inactive); in experiment [3] it was 19.1 µM (inactive); in experiment [4], 6.58 µM (inactive); in [5], 14.9 µM (inactive); in experiment [9], 9.64 µM (inactive); in experiment [6], 14.8 µM (inactive). The values for the GI50 in experiment [7] and in [8] were 4.61 µM (inactive) and 11.7 µM (inactive), respectively.

Take `Cc1cc([N+](=O)[O-])ccc1Sc1c2ccccc2nc2ccccc12`: the GI50 in [1] was 33 µM (inactive); in experiment [2] it was 17.5 µM (inactive); in [5] it was 64 µM (inactive); in [7] it was 31.4 µM (inactive); in experiment [8], 18.7 µM (inactive).

Take `COC(=O)[C@]1(C)CCC[C@]2(C)C3CC4OOC3(C=C4C(C)(C)O)CCC21` (stereo partly specified): the GI50 in [2] is 20.6 µM (inactive); in [3] it was 30.8 µM (inactive); in experiment [4], 30.8 µM (inactive); in experiment [9], > 100 µM (inactive); in experiment [6] it was 43 µM (inactive); in [7], 35.8 µM (inactive). Besides, in experiment [8], the GI50 was 22.2 µM (inactive).

With `COC(=O)C(=O)C(C(=O)C(=O)Nc1cc(Cl)c(Cl)cc1Cl)c1nc2ccc([N+](=O)[O-])cc2nc1O` (stereo unspecified), the GI50 in experiment [1] is > 100 µM (inactive); in experiment [2], 7.1 µM (inactive); in experiment [3], > 100 µM (inactive); in [4], > 100 µM (inactive); in experiment [5], 8.81 µM (inactive); in [9], > 100 µM (inactive). Moreover, the GI50 in [6], in experiment [7] and in experiment [8] was > 100 µM (inactive) in each case.

On to `COc1ccc(/C(=C\c2cc(OC)c(OC)c(OC)c2)C(=O)O)cc1`, for which the GI50 in experiment [1] is 23.3 µM (inactive); in [2] it was 11.1 µM (inactive); in experiment [3], 39 µM (inactive); in [4] it was 25.2 µM (inactive); in experiment [5], > 100 µM (inactive); in [6], 52 µM (inactive). Besides, the GI50 in experiment [7] is 21 µM (inactive); in experiment [8], 41 µM (inactive).

Consider `COc1ccc(C(C)Nc2cc(OC)c(OC)c(OC)c2)cc1` (stereo unspecified), for which the GI50 in [1] is 1.82 µM (inactive); in [2], 6.89 µM (inactive); in [3], 4.08 µM (inactive); in experiment [5] it was > 100 µM (inactive); in experiment [6] it was 4.75 µM (inactive); in experiment [7], 2.57 µM (inactive). Also, the GI50 in [8] was 6.38 µM (inactive).

With `CCOC(=O)c1cc(=O)n(C)c(=O)n1C`, the GI50 in experiment [1], in experiment [2], in experiment [3], in [5], in [6] and in [7] was > 100 µM (inactive) throughout. Further, the GI50 in [8] is > 100 µM (inactive).

For `Cc1cccc(NC(=O)c2cccc([N+](=O)[O-])c2O)c1C`, the GI50 in experiment [1] is 22.2 µM (inactive); in experiment [2] it was 20.3 µM (inactive); in experiment [3], 85.5 µM (inactive); in experiment [4], 32.4 µM (inactive); in [5], 4.74 µM (inactive); in [6], 21.9 µM (inactive). For the same compound, the GI50 in experiment [7] was 21.8 µM (inactive); in experiment [8], 34 µM (inactive).

As to `CN(C)CC1CC/C(=C\c2ccc3c(c2)OCO3)C1=O` (stereo unspecified), the GI50 in [1] is 16.8 µM (inactive); in [2] it was 18.3 µM (inactive); in [3], 21.8 µM (inactive); in experiment [4], 18.4 µM (inactive); in experiment [5], 15.9 µM (inactive); in [9], 12.7 µM (inactive). In addition, the GI50 was 16.4 µM (inactive) in experiment [6], 19.7 µM (inactive) in experiment [7] and 12.6 µM (inactive) in [8].

Consider `O=C1OCC2C1C1c3ccccc3C(O)c3ccccc3C21` (stereo unspecified), for which the GI50 in experiment [2], in experiment [3], in [4], in [5], in experiment [9] and in [6] was > 100 µM (inactive) each time. Also, the GI50 in [7] and in experiment [8] was > 100 µM (inactive) each time.

Consider `CC1(C)OC2OC(/C=C/[N+](=O)[O-])C3OC(C)(C)OC3C2O1` (stereo unspecified), for which the GI50 in [1] is 17.3 µM (inactive); in [3] it was 14.2 µM (inactive); in experiment [4], 18.6 µM (inactive); in experiment [5], 23.1 µM (inactive); in experiment [6] it was 14.2 µM (inactive); in [7], 19.5 µM (inactive). Besides, the GI50 in experiment [8] was 2.76 µM (inactive).

Turning to `COc1ccc(C(=O)O)c(Cc2ccc3ccccc3c2)c1`, the GI50 in experiment [1], in experiment [2], in experiment [3], in experiment [4], in experiment [5] and in [6] was > 100 µM (inactive) each time. In addition, the GI50 in experiment [7] and in experiment [8] was > 100 µM (inactive) in each case.

As for `NNC(=S)N/N=C/C(=C/Nc1ccccc1)[N+](=O)[O-]`, the GI50 in experiment [2], in experiment [4], in experiment [9], in experiment [6], in [7] and in experiment [8] was > 100 µM (inactive) throughout.

For `N#CC(C(=N/NC(N)=S)/C(=N/NC(N)=S)C(C#N)c1ccc(Cl)cc1)c1ccc(Cl)cc1` (stereo unspecified), the GI50 in experiment [1] is > 100 µM (inactive); in experiment [2] it was > 100 µM (inactive); in experiment [3] it was 35.6 µM (inactive); in [4], > 100 µM (inactive); in experiment [5], 94.2 µM (inactive); in experiment [6], > 100 µM (inactive). Also, the GI50 was > 100 µM (inactive) in experiment [7] and 49.7 µM (inactive) in experiment [8].

Regarding `CC1=N/C(=C\c2ccc(/C=C3/N=C(C)OC3=O)cc2)C(=O)O1`, the GI50 in [1], in [2], in [3], in experiment [4], in experiment [5] and in [6] was > 100 µM (inactive) throughout. In addition, the GI50 in experiment [7] and in experiment [8] was > 100 µM (inactive) each time.

Turning to `Cc1ccc2oc(=O)c3c(O)c4cccc(OC5OC(C)C6O[C@@H](c7ccccc7)OC6C5OC5OC(C)C(O)C(O)C5O)c4c4oc(=O)c1c2c34` (stereo partly specified), the GI50 in experiment [1] was 0.0278 µM (active); in experiment [2], 0.0486 µM (active); in experiment [3], 0.708 µM (active); in experiment [4], 0.262 µM (active); in [5], 0.466 µM (active); in experiment [9], 0.0456 µM (active). The GI50 is 0.11 µM (active) in experiment [6], 0.0354 µM (active) in [7] and 0.0594 µM (active) in experiment [8].

Regarding `O=C(CCc1cc(-c2ccc(F)cc2)n[nH]1)N(Cc1ccccc1)Cc1ccccc1`, the GI50 in experiment [1], in experiment [2], in experiment [3], in experiment [4], in experiment [5] and in experiment [6] was > 100 µM (inactive) in each case. The GI50 in experiment [7] and in experiment [8] was > 100 µM (inactive) throughout.

For the compound `CCN(CC)C(=O)CCn1cc(F)c(=O)[nH]c1=O`, the GI50 in experiment [1], in experiment [2], in [3], in experiment [4], in experiment [6] and in experiment [7] was > 100 µM (inactive) each time. For the same compound, in experiment [8], the GI50 was > 100 µM (inactive).

`Nc1nnc(NC(=O)C2=NS(=O)(=O)c3cc(S(N)(=O)=O)c(Cl)cc3N2)[nH]1`: the GI50 in experiment [2], in experiment [3], in experiment [4], in experiment [5], in [6] and in experiment [7] was > 100 µM (inactive) in each case. In addition, the GI50 in [8] is > 100 µM (inactive).

`COc1ccc(Nc2nc3c(N)cc(C(F)(F)F)cc3nc2-c2ccccc2)cc1OC`: the GI50 was 33.5 µM (inactive) in experiment [1]; 14.8 µM (inactive) in [2]; 28.3 µM (inactive) in experiment [3]; 13.7 µM (inactive) in experiment [5]; 22.5 µM (inactive) in experiment [6]; 36.9 µM (inactive) in experiment [7]. In addition, in [8], the GI50 was 15.3 µM (inactive).

`COc1c(C)c2c(c3c1c(=O)c1ccccc1n3C)C=CC(C)(C)O2`: the GI50 in experiment [1] was 14.8 µM (inactive); in experiment [2], 24.9 µM (inactive); in experiment [3], 31.7 µM (inactive); in [4], 14.5 µM (inactive); in experiment [5], 38.1 µM (inactive); in experiment [6] it was 31.7 µM (inactive). The GI50 is 16.4 µM (inactive) in [7] and 26 µM (inactive) in experiment [8].

Turning to `C#CCN1CCN(C(=S)N/N=C(\C)c2ccccn2)CC1`, the GI50 is < 0.0161 µM (active) in [1]; 0.01 µM (active) in experiment [2]; 5.37 µM (inactive) in [3]; 0.01 µM (active) in [4]; 2.72 µM (inactive) in [5]; < 0.0248 µM (active) in experiment [7]. Besides, the GI50 in experiment [8] is 0.001 µM (active).
